Data published in paper PMC7617459, “Comparative Evaluation and Profiling of Chemical Tools for the Nuclear Hormone Receptor Family 2” (ACS pharmacology & translational science, 2025).
Like-named read-outs stand apart in the source and are kept apart here.

Tests used:
TLX [1] = conditions: cited from earlier work
human insulin promoter = conditions: insulin promoter assay; cited from earlier work
HNF4α = target: T1, HNF4α (Homo sapiens, UniProt P41235); assay: Gal4-hybrid reporter gene assay HNF4α; conditions: 30 µM, HEK293T
T1 sequence (P41235 147-377 limits assumed): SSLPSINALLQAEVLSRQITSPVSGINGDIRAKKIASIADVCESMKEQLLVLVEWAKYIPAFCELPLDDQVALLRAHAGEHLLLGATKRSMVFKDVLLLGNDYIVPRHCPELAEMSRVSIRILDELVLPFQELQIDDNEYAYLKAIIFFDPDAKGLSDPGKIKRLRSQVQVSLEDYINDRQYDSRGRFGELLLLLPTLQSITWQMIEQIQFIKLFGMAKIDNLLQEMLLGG
Procedure: (§1) HEK293T cells (German Collection of Microorganisms and Cell Culture GmbH, DSMZ) were cultured in Dulbecco’s modified Eagle’s medium (DMEM), high glucose supplemented with 10% fetal calf serum (FCS), sodium pyruvate (1 mM), penicillin (100 U/mL), and streptomycin (100 μg/mL) at 37 °C and 5% CO2 and seeded in 96-well plates (3 × 10^4 cells/well). The medium was changed to Opti-MEM without supplements, and the cells were transiently transfected with one pFA-CMV-hNR-LBD clone, pFR-Luc, and pRL-SV40 using Lipofectamine LTX reagent (Invitrogen, Thermo Fisher Scientific) according to the manufacturer’s instructions. Five hours after transfection, cells were incubated with the test compounds in Opti-MEM supplemented with penicillin (100 U/mL), streptomycin (100 μg/mL), and 0.1% DMSO. Each sample was set up in duplicates and tested in at least three independent experiments. After 16 h incubation, luciferase activity was measured using the Dual-Glo Luciferase Assay System (Promega) according to the manufacturer’s protocol on a Tecan Spark luminometer (Tecan Deutschland GmbH, Crailsheim, Germany). Firefly luminescence was divided by Renilla luminescence and multiplied by 1000 resulting in relative light units (RLUs) to normalize for transfection efficiency and cell growth. Fold activation was obtained by dividing the mean RLU of the test compound by the mean^a RLU of the untreated control, and relative activation was calculated by dividing the fold activation of a test sample by the fold activation of the respective reference agonist. Antagonistic effects were evaluated by coincubation of the test compound with the respective reference ligand.

[2] = system: fructose-1,6-bisphosphatase 1 (FBP1); design: method as in PMID 33114319; conditions: HepG2 cells; cited from earlier work
[3] = system: adipocyte-derived stem cells (ASC); assay: Adipogenesis assay (ASC differentiation, Oil Red O); type: cell-based; conditions: 18 days
From the text: Using the small collection of NR2 modulators with sufficient reproducible on-target activity and selectivity (6, 7, 9, 11, 12, 13, 19, 21, 22, 23, 25), we next explored their application as a chemogenomics set.[161] To probe the potential of the collection to link phenotypic effects and target in a complex cellular setting, we determined compound effects on the differentiation of adipocyte-derived stem cells (ASC). Under cyclic treatment with insulin, isobutylmethylxanthine, dexamethasone and the PPARγ agonist pioglitazone,[162] these cells develop into adipocytes and accumulate large amounts of fat. However, adipogenesis is orchestrated by many transcription factors[163] and could potentially involve a role of NR2 receptors. […] There was no uniform effect of RXR modulators on fat deposition in adipocytes, possibly due to diverse off-targets of 6 and 11. […] Among TLX ligands the agonist 19 increased the amount of fat and lipid particle size, pointing to enhanced adipogenesis. The inverse TLX agonist 21 had no effect. PNR ligand effects in the adipogenesis model were generally weak.
Differentiation experiments of ASC52telo, hTERT cells (ATCC® SCRC-4000™) were conducted according to a previously described procedure.[162] In brief, the cells were grown in DMEM high-glucose medium supplemented with 10% fetal calf serum, sodium pyruvate (1 mM), penicillin (100 U/mL), and streptomycin (100 μg/mL) at 37 °C and 5% CO2. The cells were seeded in standard culture medium at a density of 5x10^4 cells per well in 96-well plates. After adherence overnight, cells were incubated with differentiation medium, composed of standard culture medium supplemented with human insulin (10 µg/mL, #I3536, Merck KgaA, Darmstadt, Germany), dexamethasone (1 µM, #D4902, Merck KgaA, Darmstadt, Germany,), isobutylmethylxanthine (0.5 mM, #I5879, Merck KgaA, Darmstadt, Germany), DMSO (final concentration 0.1%) and the respective test compounds or pioglitazone at 1 µM. The cells were kept in a differentiation medium for 48-72 h followed by a 24 h incubation with standard culture medium supplemented with 10 µg/mL insulin only. This cycle was repeated five times accounting for a total differentiation time of 18 days. The indicated test compounds at 0.1% DMSO or 0.1% DMSO alone as vehicle control were supplemented freshly with every medium exchange. After the 18-day differentiation procedure and test compound treatment, the cells were washed with phosphate buffered saline (PBS) once and fixed with formalin (10%, stabilized with methanol, 100 µL per well, #15071, Morphisto GmbH, Offenbach am Main, Germany) for 15 min at room temperature. The fixing solution was aspirated, and the fixed cells were washed twice with 50% ethanol solution with the second wash step incubating for 15 min at room temperature to equilibrate the specimens for staining. Oil Red O (#O0625, Merck KgaA, Darmstadt, Germany) was prepared at 0.5% (w/v) in 50% ethanol (v/v) and 5% salicylic acid (w/v), filtered with grade 595 Whatman® filter paper (#311611, Schleicher & Schuell GmbH, London, U.K.) and a 0.2 µm syringe filter (FP 30/0,2 CA-S, #10462200, Schleicher & Schuell GmbH, London, U.K.). Upon equilibration, specimens were incubated with 100 µL of 0.5% Oil Red O solution for 45 min at room temperature before the staining solution was aspirated and the wells were washed once with 50% (v/v) ethanol solution and three times with ddH2O. Specimens were kept in ddH2O for subsequent analysis. For each well, two pictures were taken at a 4x magnification using a Motic®AE31E inverted microscope and a Moticam 1080 (Motic Hong Kong Ltd.). Images were corrected for skewed illumination, Oil Red O crystal precipitates were identified and removed, and the resulting processed pictures were dichromized to extract gray values from the red channel using CellProfiler (Version 4.2.6). […]

RXRα [4] = conditions: cited from earlier work; for EC50: reporter gene assay
RXRβ = conditions: cited from earlier work
RXRγ = conditions: cited from earlier work; for EC50: reporter gene assay
RXRα [5] = target: T2, RXRα (Homo sapiens, UniProt P19793); assay: Gal4-hybrid reporter gene assay RXRα
T2 sequence (P19793 227-458 limits assumed): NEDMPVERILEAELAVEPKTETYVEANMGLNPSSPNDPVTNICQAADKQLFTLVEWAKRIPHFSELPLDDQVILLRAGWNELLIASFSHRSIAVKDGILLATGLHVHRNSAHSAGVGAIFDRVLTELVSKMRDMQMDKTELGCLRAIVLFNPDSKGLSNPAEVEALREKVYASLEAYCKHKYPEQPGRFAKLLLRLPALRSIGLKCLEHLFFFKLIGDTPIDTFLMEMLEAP
Procedure: as §1

TLX [6] = conditions: cited from earlier work; remark: listed apart in the source
TLX [7] = conditions: read-out: EC50 TLX activation; cellular reporter gene assay; cited from earlier work
TLX-regulated genes = conditions: cited from earlier work
TLX [8] = target: T3, TLX (Homo sapiens, UniProt Q9Y466); assay: Gal4-hybrid reporter gene assay TLX; type: cell-based; conditions: selected test concentration (Figure 3)
T3 construct: encoding the hinge region and the LBD of the canonical isoform of the respective human nuclear receptors; expressed in transfected cells; host or cells: HEK293T
Procedure: as §1

nuclear receptors = assay: Selectivity profiling in Gal4-hybrid reporter gene assay panel; type: cell-based, human; conditions: at active concentration
Procedure: Compounds were tested at concentrations around EC90 according to the literature or at the highest nontoxic concentration (from the multiplex toxicity assay). […] (b) Selectivity profiling of NR2 modulators in a representative panel of nuclear receptors outside the NR2 family. […] Effects <5% of the respective reference ligands were considered as not relevant and omitted. Only effects are shown that are statistically significant against VP16 ctrl (Figure S3); n = 3.
as §1

COS-7 cells = assay: Multiplex toxicity assay; type: cell-based; conditions: 24 h, at active concentration
Procedure: COS-7 cells (DSMZ #ACC 60) were cultured at 37°C and 5% CO2 in DMEM high glucose medium supplemented with sodium pyruvate (1 mM), penicillin (100 U/mL), streptomycin (100 µg/mL), and 10% fetal calf serum (FCS). After aspirating the wells, the cells were seeded at 1x10^5 cells per well in complete culture medium. […] Each sample was prepared in at least 4 biologically independent replicates. After incubation for 24 h, the wells were aspirated and incubated for 30 min with stimulation medium containing 1 µM NucView® 405 fluorogenic caspase-3 substrate (#10405, Biotium, Fremont, USA) and Live-or-Dye Nuc-Fix Red (0.05x, Biotium, Inc., Fremont, CA, 1691 USA) to detect apoptosis and necrosis, respectively. After incubation, a total of 6 fluorescence images per well at 10x magnification were taken to detect NucView®-positive (Ex: 381–400 nm, Em: 414–450 nm) and Live-or-Dye-positive cells (Ex: 543−566 nm, Em: 580−611 nm) using on a Tecan Spark Cyto (Tecan Group AG). Reference readings for background correction and detection of auto-fluorescence were taken at 414–450 nm prior to staining. Thereafter, wells were aspirated, the cells were incubated for 3 h with 90 µL culture medium (0.2% FCS) and 10 µL Cell Counting Kit-8 solution (CCK-8, MedChem Express #HY-K0301), and absorbance was measured at 1, 2, and 3h of incubation at 450 nm on a Tecan Spark Cyto to assess metabolic activity of the cells. Before drug administration, after the first medium exchange, 24 h after drug administration, and after fluorescence imaging cell confluence was assessed using the Tecan Spark Cyto, to account for changes in cell confluence due to drug administration and cell handling. The number of apoptotic cells, metabolic activity, and changes in cell confluence in response to drug treatment were all normalized to the vehicle control of each biological replicate individually.

TLX expression = conditions: cited from earlier work
full-length TLX = conditions: reporter gene assay; cited from earlier work
TLX LBD = conditions: ITC; cited from earlier work
[9] = reporter gene assays, read-out: IC50 (counteracting TLX repressor activity)
[10] = reporter gene assay, read-out: RXRβ cellular activity/potency
[11] = read-out: RXRγ cellular activity/potency

T3 sequence (Q9Y466 155-383 limits assumed): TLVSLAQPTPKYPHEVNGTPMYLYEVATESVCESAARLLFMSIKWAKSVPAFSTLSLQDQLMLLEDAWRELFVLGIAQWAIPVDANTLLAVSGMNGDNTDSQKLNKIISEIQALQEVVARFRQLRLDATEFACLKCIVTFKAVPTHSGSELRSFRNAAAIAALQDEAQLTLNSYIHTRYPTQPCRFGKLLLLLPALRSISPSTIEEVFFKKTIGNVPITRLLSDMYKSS

Cn1c(=O)[nH]c2nc[nH]c2c1=O [1-methylxantine]
IC50 (TLX [1]; [9]): 9000 nM

CC(Cc1cccc(C(F)(F)F)c1)NCCOC(=O)c1ccccc1 (stereo not shown) [compound 2, benfluorex]
EC50 (human insulin promoter): 24400 nM
effects on HNF4 activity (HNF4α): no effects

CCN(CCCc1ccccc1)CCCc1ccccc1 [compound 3, alverine]
EC50 (human insulin promoter): 3500 to 6800 nM
effects on HNF4 activity (HNF4α): no effects

O=C(O)c1cc(-c2ccccc2)ccc1O [compound 4]
expression of HNF4 target gene FBP1 [2]: diminished expression

O=C(O)[C@@H]1C[C@H]1c1nc(-c2ccccc2)c(-c2cc(C(F)(F)F)cc(C(F)(F)F)c2)o1 [compound 7]
Oil red O positive area (amount of fat) [3]: affected neither
fat droplet (particle) size [3]: affected neither
EC50 (RXRα [4]; read-out: RXRα cellular activity/potency): 5 nM
EC50 (RXRβ; [10]): 1.4 nM
EC50 (RXRγ; [11]): 4 nM

CC1=C2[C@H](/C=C(\C)C(=O)O)CC[C@@H](C)[C@H]2CC1 [compound 9, Valerenic acid]
RXRα fold activation (RXRα [4]): 9 fold act.
EC50 (RXRα [4]; read-out: RXRα EC50): 27000 nM
RXRβ fold activation (RXRβ): 69 fold act.
EC50 (RXRβ; reporter gene assay, read-out: RXRβ EC50): 5200 nM
RXRγ fold activation (RXRγ): 4 fold act.
EC50 (RXRγ; read-out: RXRγ EC50): 43000 nM
RXRα activation (RXRα [5]; 10 µM): weak RXRα activation

CCCCCOc1cc2c(cc1-c1cc(/C=C/C(=O)O)ccc1O)C(C)(C)CCC2(C)C [compound 12]
IC50 (RXRβ; reporter gene assay, no precise value reported, read-out: RXRb cellular activity/potency (antagonist)): ~50 nM
effect on bexarotene-induced RXR activation (RXRα [5]; 1 µM, coincubation with bexarotene): robustly blocked

CC(C)c1c(CN(C)C(C)Cc2ccccc2)n(C)n(-c2ccccc2)c1=O (stereo not shown) [compound 14]
Kd (TLX [6]): 6600 nM
EC50 (TLX [7]): 9200 nM

CC(C)NCC(O)COc1cccc2ccccc12 (stereo not shown) [compound 18, propranolol]
TLX-regulated SIRT1 and PTEN/TET3 expression (TLX-regulated genes; qRT-PCR): modulated

CCCCOc1cc(C(=O)Nc2cc(-n3cnc(C)c3)cc(C(F)(F)F)c2)c2ccccc2n1 [compound 19]
TLX modulation (TLX [8]): TLX activation
selectivity over other nuclear receptors (nuclear receptors): selective over other nuclear receptors
cytotoxicity (COS-7 cells): non-toxic
Oil red O positive area (amount of fat) [3]: increased
fat droplet (particle) size [3]: increased
SIRT1 expression (TLX-regulated genes): induced SIRT1 expression
TLX expression levels (TLX expression): no effect
EC50 (TLX [1]; read-out: Gal4-TLX EC50): 250 nM
IC50 (TLX [1]; reporter gene assay, read-out: IC50 (first value of cell)): 250 nM
EC50 (full-length TLX): 700 nM
Kd (TLX LBD): 500 nM

Cn1c(=O)c2[nH]c(-c3ccccc3Cl)nc2n(C)c1=O [compound 20, 8-(2-chlorophenyl)-theophylline]
IC50 (TLX [1]; [9]): 500 nM
Kd (TLX LBD): 800 nM

Cn1c(=O)c2[nH]c(-c3ccccc3)nc2n(C)c1=O [compound 21, 8-Phenyl-theophylline]
TLX modulation (TLX [8]): inverse agonism
selectivity over other nuclear receptors (nuclear receptors): selective over other nuclear receptors
cytotoxicity (COS-7 cells): non-toxic
Oil red O positive area (amount of fat) [3]: no effect
fat droplet (particle) size [3]: no effect
